Fold change (FC), Activity and inhibition data for 16 compounds are collected here from ChEMBL document CHEMBL6182889, “Discovery of the first-in-class DOT1L PROTAC degrader” (Eur J Med Chem, 2025).

In assay [1] the target is T1, von Hippel-Lindau disease tumor suppressor/Histone-lysine N-methyltransferase, H3 lysine-79 specific (Homo sapiens, UniProt Q8TEK3+P40337). Briefly: PROTAC activity at VHL/DOTIL in mixed-lineage leukemia rearranged (MLL-r) human THP-1 cells assessed as induction of DOT1L degradation by measuring fold change in DOTIL protein level at 3 uM incubated for 24 hrs by western blot analysis relative to control. The assay is classed as cell-based.

The target of assay [2] is T1, von Hippel-Lindau disease tumor suppressor/Histone-lysine N-methyltransferase, H3 lysine-79 specific. Put plainly: PROTAC activity at VHL/DOTIL in mixed-lineage leukemia rearranged (MLL-r) human THP-1 cells assessed as induction of DOT1L degradation by measuring fold change in DOTIL protein level at 0.3 uM incubated for 24 hrs by western blot analysis relative to control. In kind it is cell-based. (Immunoblotting shows a protein as a band on a membrane.)

In a further assay the test system is MOLM-13. Put plainly: Antiproliferative activity against mixed-lineage leukemia rearranged (MLL-r) human MOLM-13 cells assessed as inhibition of cell growth incubated for 7 days by CCK-8 assay. The assay is classed as functional, cell-based. As to conditions: time 7.0 day. A general note: Tetrazolium assays rely on reduction of a dye to a coloured formazan, in cell work by metabolically active cells.

The target in assay [3] is Histone-lysine N-methyltransferase, H3 lysine-79 specific (Homo sapiens) (UniProt Q8TEK3). Briefly: Inhibition of human DOT1L using oligonucleosomes and SAM as substrate at 1.1 to 3.3 uM by radiometric Hotspot assay. As to conditions: dose 1.1-3.3 µM.
The subject of another assay is MV4-11. Put plainly: Antiproliferative activity against mixed-lineage leukemia rearranged (MLL-r) human MV4-11 cells assessed as inhibition of cell growth incubated for 7 days by CCK-8 assay. The assay is classed as functional. The conditions noted are these: time 7.0 day.
Assay [4] addresses Histone-lysine N-methyltransferase, H3 lysine-79 specific (Homo sapiens) (UniProt Q8TEK3). Briefly: Inhibition of human DOT1L using oligonucleosomes and SAM as substrate at 4.6 nM by radiometric Hotspot assay.

The source made the active and inactive calls. The rule behind the calls is not given here.

T1 sequence (P40337 whole entry, looked up): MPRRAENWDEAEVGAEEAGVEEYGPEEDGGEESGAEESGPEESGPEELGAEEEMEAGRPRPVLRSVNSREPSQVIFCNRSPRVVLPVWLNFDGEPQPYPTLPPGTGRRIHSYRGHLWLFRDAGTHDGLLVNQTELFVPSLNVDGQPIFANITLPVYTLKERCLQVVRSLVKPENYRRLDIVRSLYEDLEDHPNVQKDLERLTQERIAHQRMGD
T1 sequence (Q8TEK3 whole entry, looked up): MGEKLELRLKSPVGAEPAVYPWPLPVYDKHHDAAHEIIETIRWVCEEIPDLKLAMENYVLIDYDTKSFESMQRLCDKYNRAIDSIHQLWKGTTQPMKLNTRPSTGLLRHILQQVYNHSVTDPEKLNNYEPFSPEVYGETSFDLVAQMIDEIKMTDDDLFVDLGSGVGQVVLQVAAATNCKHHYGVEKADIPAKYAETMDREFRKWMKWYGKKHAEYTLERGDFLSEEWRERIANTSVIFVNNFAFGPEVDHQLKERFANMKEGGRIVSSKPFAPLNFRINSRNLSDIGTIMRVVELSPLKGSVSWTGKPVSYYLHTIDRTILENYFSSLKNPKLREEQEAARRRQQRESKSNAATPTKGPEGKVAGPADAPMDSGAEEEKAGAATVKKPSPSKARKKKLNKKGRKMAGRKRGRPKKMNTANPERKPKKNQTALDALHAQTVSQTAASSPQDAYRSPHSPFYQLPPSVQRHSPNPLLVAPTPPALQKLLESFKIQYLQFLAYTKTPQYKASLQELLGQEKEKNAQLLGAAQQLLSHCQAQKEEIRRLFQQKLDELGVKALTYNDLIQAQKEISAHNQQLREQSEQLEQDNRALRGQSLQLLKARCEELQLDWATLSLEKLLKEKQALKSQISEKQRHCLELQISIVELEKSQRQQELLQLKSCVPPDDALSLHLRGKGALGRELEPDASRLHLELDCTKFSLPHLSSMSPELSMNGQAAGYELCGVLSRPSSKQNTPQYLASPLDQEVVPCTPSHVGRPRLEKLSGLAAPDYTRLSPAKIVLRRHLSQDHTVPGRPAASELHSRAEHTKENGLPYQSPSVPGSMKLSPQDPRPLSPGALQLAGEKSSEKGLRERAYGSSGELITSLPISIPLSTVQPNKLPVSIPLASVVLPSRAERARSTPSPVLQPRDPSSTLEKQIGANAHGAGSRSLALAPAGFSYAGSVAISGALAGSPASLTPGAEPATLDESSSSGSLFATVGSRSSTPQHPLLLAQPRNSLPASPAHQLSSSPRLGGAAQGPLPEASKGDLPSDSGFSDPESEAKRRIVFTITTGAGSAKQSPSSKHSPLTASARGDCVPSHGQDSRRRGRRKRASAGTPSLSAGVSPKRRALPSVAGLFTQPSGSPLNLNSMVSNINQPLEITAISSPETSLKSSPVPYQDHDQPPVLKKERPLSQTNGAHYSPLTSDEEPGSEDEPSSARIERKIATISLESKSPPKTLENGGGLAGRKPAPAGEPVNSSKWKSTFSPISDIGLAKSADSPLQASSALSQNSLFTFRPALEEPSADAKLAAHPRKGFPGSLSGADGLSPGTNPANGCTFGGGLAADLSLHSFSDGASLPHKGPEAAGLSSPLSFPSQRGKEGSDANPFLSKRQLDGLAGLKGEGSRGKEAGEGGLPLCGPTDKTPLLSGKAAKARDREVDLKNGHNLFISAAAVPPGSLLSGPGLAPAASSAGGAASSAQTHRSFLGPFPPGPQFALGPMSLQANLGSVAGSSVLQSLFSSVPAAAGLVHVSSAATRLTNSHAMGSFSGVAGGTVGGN
Sequence of Histone-lysine N-methyltransferase, H3 lysine-79 specific (Homo sapiens) (Q8TEK3 whole entry, looked up): as above

Take `Cc1ncsc1-c1ccc(CNC(=O)[C@@H]2C[C@@H](O)CN2C(=O)[C@@H](NC(=O)CCCCCCNC(=O)COc2nc(N)nc(Nc3cc(S(N)(=O)=O)ccc3N[C@@H](c3cccc4c3OC(F)(F)O4)c3ncccc3Cl)n2)C(C)(C)C)cc1`: the fold change (FC) was found to be 1.17 in assay [1] and 0.99 in assay [2].
Consider `CC(=O)Nc1nc(Nc2cc(S(=O)(=O)NC(C)=O)ccc2N(C(C)=O)[C@@H](c2cccc3c2OC(F)(F)O3)c2ncccc2Cl)nc(OCC(=O)NCCCCCCNC(=O)C[C@H](NC(=O)C2CC(O)CN2C(=O)[C@@H](NC(=O)C2(F)CC2)C(C)(C)C)c2ccc(-c3scnc3C)cc2)n1` (single isomer, unassigned), for which the outcome in the assay with MOLM-13 and in the assay with MV4-11 was inactive. This compound also yielded an inhibition in assay [3] of more than 50%. For the same compound, the fold change (FC) worked out at 1.11 in assay [1] and 1.1 in assay [2].
Take `Cc1ncsc1-c1ccc(CNC(=O)[C@@H]2C[C@@H](O)CN2C(=O)[C@@H](NC(=O)CCCCCCCNC(=O)COc2nc(N)nc(Nc3cc(S(N)(=O)=O)ccc3N[C@@H](c3cccc4c3OC(F)(F)O4)c3ncccc3Cl)n2)C(C)(C)C)cc1`: the figures for the fold change (FC) in assay [1] and in assay [2] were 0.83 and 1.01, respectively.
With `Cc1ncsc1-c1ccc([C@H](CC(=O)NCCCCCCNC(=O)COc2nc(N)nc(Nc3cc(S(N)(=O)=O)ccc3N[C@@H](c3cccc4c3OC(F)(F)O4)c3ncccc3Cl)n2)NC(=O)[C@@H]2C[C@H](O)CN2C(=O)[C@@H](NC(=O)C2(F)CC2)C(C)(C)C)cc1`, the result in the assay on MOLM-13 was inactive. Also, the fold change (FC) amounted to 1.05 in assay [1] and 0.99 in assay [2]. Further, the inhibition in assay [4] is more than 95%. Moreover, in the assay with MV4-11, the result was Active.
Turning to `Cc1ncsc1-c1ccc(CNC(=O)[C@@H]2C[C@@H](O)CN2C(=O)[C@@H](NC(=O)CCCNC(=O)COc2nc(N)nc(Nc3cc(S(N)(=O)=O)ccc3N[C@@H](c3cccc4c3OC(F)(F)O4)c3ncccc3Cl)n2)C(C)(C)C)cc1`, the fold change (FC) in assay [1] was found to be 1.2; in assay [2], 0.99.
For `CC(C)N(C[C@H]1O[C@@H](n2cnc3c(N)ncnc32)[C@H](O)[C@@H]1O)[C@H]1C[C@@H](CCc2nc3cc(C(C)(C)C)ccc3[nH]2)C1`, the Activity entry in the assay with MOLM-13 is “Active; Reduced Potency In Molm-13 Cells Relative To Mv4-11 Cells Observed”. Moreover, the fold change (FC) in assay [1] came to 1.03; in assay [2] it was 1.07.
In the same order, the values of `COc1nc(N)nc(Nc2cc(S(N)(=O)=O)ccc2N[C@@H](c2cccc3c2OC(F)(F)O3)c2ncccc2Cl)n1` are “Active; Reduced Potency In Molm-13 Cells Relative To Mv4-11 Cells Observed”, 1.57 and 1.29.
For `Cc1ncsc1-c1ccc([C@H](CC(=O)NCCCNC(=O)COc2nc(N)nc(Nc3cc(S(N)(=O)=O)ccc3N[C@@H](c3cccc4c3OC(F)(F)O4)c3ncccc3Cl)n2)NC(=O)[C@@H]2C[C@@H](O)CN2C(=O)[C@@H](NC(=O)C2(F)CC2)C(C)(C)C)cc1`, the fold change (FC) in assay [1] is 0.28; in assay [2] it was 0.72.
On to `Cc1ncsc1-c1ccc(CNC(=O)[C@@H]2C[C@@H](O)CN2C(=O)[C@@H](NC(=O)CCNC(=O)COc2nc(N)nc(Nc3cc(S(N)(=O)=O)ccc3N[C@@H](c3cccc4c3OC(F)(F)O4)c3ncccc3Cl)n2)C(C)(C)C)cc1`, for which the fold change (FC) is 0.95 in assay [1] and 0.82 in assay [2].
As to `Cc1ncsc1-c1ccc([C@H](CC(=O)NCCCCNC(=O)COc2nc(N)nc(Nc3cc(S(N)(=O)=O)ccc3N[C@@H](c3cccc4c3OC(F)(F)O4)c3ncccc3Cl)n2)NC(=O)[C@@H]2C[C@@H](O)CN2C(=O)[C@@H](NC(=O)C2(F)CC2)C(C)(C)C)cc1`, the fold change (FC) in assay [1] was 0.6; in assay [2] it was 0.58.
As for `Cc1ncsc1-c1ccc([C@H](CC(=O)NCCCCCNC(=O)COc2nc(N)nc(Nc3cc(S(N)(=O)=O)ccc3N[C@@H](c3cccc4c3OC(F)(F)O4)c3ncccc3Cl)n2)NC(=O)[C@@H]2C[C@@H](O)CN2C(=O)[C@@H](NC(=O)C2(F)CC2)C(C)(C)C)cc1`, the values for the fold change (FC) in assay [1] and in assay [2] were 0.36 and 0.9, respectively.
With `Cc1ncsc1-c1ccc([C@H](CC(=O)NCCCCCCCNC(=O)COc2nc(N)nc(Nc3cc(S(N)(=O)=O)ccc3N[C@@H](c3cccc4c3OC(F)(F)O4)c3ncccc3Cl)n2)NC(=O)[C@@H]2C[C@@H](O)CN2C(=O)[C@@H](NC(=O)C2(F)CC2)C(C)(C)C)cc1`, the fold change (FC) in assay [1] turned out to be 0.33; in assay [2], 0.36.
As to `Cc1ncsc1-c1ccc([C@H](CC(=O)NCCCCCCCCNC(=O)COc2nc(N)nc(Nc3cc(S(N)(=O)=O)ccc3N[C@@H](c3cccc4c3OC(F)(F)O4)c3ncccc3Cl)n2)NC(=O)[C@@H]2C[C@@H](O)CN2C(=O)[C@@H](NC(=O)C2(F)CC2)C(C)(C)C)cc1`, the fold change (FC) in assay [1] turned out to be 0.56; in assay [2] it was 0.52.
Consider `Cc1ncsc1-c1ccc([C@H](CC(=O)NCCNC(=O)COc2nc(N)nc(Nc3cc(S(N)(=O)=O)ccc3N[C@@H](c3cccc4c3OC(F)(F)O4)c3ncccc3Cl)n2)NC(=O)[C@@H]2C[C@@H](O)CN2C(=O)[C@@H](NC(=O)C2(F)CC2)C(C)(C)C)cc1`, for which the fold change (FC) in assay [1] worked out at 0.55; in assay [2], 0.83.
The like results for `Cc1ncsc1-c1ccc(CNC(=O)[C@@H]2C[C@@H](O)CN2C(=O)[C@@H](NC(=O)CCCCNC(=O)COc2nc(N)nc(Nc3cc(S(N)(=O)=O)ccc3N[C@@H](c3cccc4c3OC(F)(F)O4)c3ncccc3Cl)n2)C(C)(C)C)cc1` were, in that order, 1.17 and 0.99.
The like results for `Cc1ncsc1-c1ccc(CNC(=O)[C@@H]2C[C@@H](O)CN2C(=O)[C@@H](NC(=O)CCCCCNC(=O)COc2nc(N)nc(Nc3cc(S(N)(=O)=O)ccc3N[C@@H](c3cccc4c3OC(F)(F)O4)c3ncccc3Cl)n2)C(C)(C)C)cc1` were, in that order, 1.11 and 1.52.

What is called inhibition is the percentage by which the read-out fell short of the control.
